The species named for data set [1] is Mus musculus. The experiment in a line: Lipoprotein lowering effect in mice at 3-6 hrs was determined. It counts as functional.
In data set [2] the test system is Mus musculus. The data set can be described thus: Percentage liver uptake of [125I]LDL upon intravenous injection to C57BL/6J mice. It counts as functional.
The nature of data set [3]: Uptake by the liver in mice at 60 min after injection. It counts as ADME, tissue-based. The conditions noted are these: mouse, in vivo, 1 h.
The nature of data set [4]: Binding affinity for mouse asialoglycoprotein receptor using [125I]-glycolipid3.
A short description of data set [5]: Half-life in C57BL/6J mice upon intravenous administration of 3.33 mg/kg. Type of data set: ADME, organism-based. More on the design: dose 3.33 mg/kg, route intravenous. The conditions noted are these: mouse, in vivo.
The subject of data set [6] is Mus musculus. The data set can be described thus: Percentage liver uptake of [3H]HDL upon intravenous injection to C57BL/6J mice.

Broadly, the Ki is a measure of affinity in units of concentration, obtained from inhibition or displacement. Read a low Ki as a stronger hold on the target. Broadly, the half-life is the time in which the quantity being followed falls by half.

`CCCCCCCC/C=C\CCCCCCCC(=O)N[C@H]1CC[C@@]2(C)C(CC[C@H]3[C@@H]4CC[C@H](C(C)CCC(=O)N[C@@H](Cc5ccc(O)cc5)C(=O)NCC(=O)NC(COCCC(=O)NCCOCCOCCOC5OC(CO)C(O)C(O)C5NC(C)=O)(COCCC(=O)NCCOCCOCCOC5OC(CO)C(O)C(O)C5NC(C)=O)COCCC(=O)NCCOCCOCCOC5OC(CO)C(O)C(O)C5NC(C)=O)[C@@]4(C)CC[C@@H]32)C1` (stereo partly specified) came in with a Peak effect in the data set listed under Mus musculus [1] of 20%. Besides, the Activity with Mus musculus [2] was found to be 70%; in the data set with Mus musculus [6], 78%. The Uptake in data set [3] came out at 44%. This compound also gave a Ki in data set [4] of 2 nM. Also, in data set [5], the half-life is ~30 min.

The values above are taken from ChEMBL document CHEMBL1138816, “Design and synthesis of novel N-acetylgalactosamine-terminated glycolipids for targeting of lipoproteins to the hepatic asialoglycoprotein receptor” (J Med Chem, 2004).
